Test results as given in US10300026B2, “Use of dihydroxyacetone in preparation of anti-cancer medicaments” (priority 2015, dated 2019).

Experiments:
HepG2 = experiment: CellTiter-Glo cell viability, HepG2 (human hepatoma cell line); type: cell-based; settings: HepG2; 72 hours; n=4; read-out: IC50
Experimental: (§1) 15 g of the commercially available 1,3-dihydroxyacetone in the solid powder form was added into 100 mL of 5% glucose (infusion bottle), then filled into 100 bottles.
(§2) After digesting the cells and counting (counting suspended cells directly), the cells were diluted to 1.25×10^5 cells/ml, inoculated into a 384-well plate (5000 cells/well) with 40 μl per well, centrifuged at 1500 rpm for 1 min, placed into the incubator and incubated overnight.
(§3) The medicaments were diluted in gradient with a 5% glucose solution to 5×, respectively. Each well was dosed with 10 μl medicament, with 4 wells (n=4) for each concentration. The cell viability was measured with Luminescence Cell Viability Assay kit after incubating for 72 hours in an incubator.
(§4) CellTiter-Glo reagent was added into each well, the volume of which is the same as that of medium. It was shaked on a shaker for 5 min, centrifuged at 1500 rpm for 1 min, and incubated in the dark at room temperature for 15 min. Then the chemiluminescence was detected with BMG PHERAstar.
(§5) The cell viability was calculated by using the following formula: Cell viability (Viability %)=100%×(LUMsample to be measured−LUMblank)/(LUMsolvent control−LUMblank)
(§6) The curve of Log[concentration] versus cell viability was fitted using Prism 6 to calculate IC50 of sample for each cell line.

Caki-1 = experiment: CellTiter-Glo cell viability, Caki-1 (human renal clear cell carcinoma skin metastatic cell); type: cell-based; settings: Caki-1; 72 hours; n=4; read-out: IC50
Experimental: as §1, §2, §3, §4, §5, §6

A431 = experiment: CellTiter-Glo cell viability, A431 (human cutaneous squamous cell carcinoma); type: cell-based; settings: A431; 72 hours; n=4; read-out: IC50
Experimental: as §1, §2, §3, §4, §5, §6

WIL2-S = experiment: CellTiter-Glo cell viability, WIL2-S (human B lymphocyte); type: cell-based; settings: WIL2-S; 72 hours; n=4; read-out: IC50
Experimental: as §1, §2, §3, §4, §5, §6

RPMI8226 = experiment: CellTiter-Glo cell viability, RPMI8226 (multiple myeloma); type: cell-based; settings: RPMI8226; 72 hours; n=4; read-out: IC50
Experimental: as §1, §2, §3, §4, §5, §6

SH-SY5Y = experiment: CellTiter-Glo cell viability, SH-SY5Y (human neuroblastoma cell); type: cell-based; settings: 72 hours, n=4, read-out: IC50
Experimental: as §1, §2, §3, §4, §5, §6

Calu-6 = experiment: CellTiter-Glo cell viability, Calu-6 (human degenerative cancer cell); type: cell-based; settings: Calu-6; 72 hours; n=4; read-out: IC50
Experimental: as §1, §2, §3, §4, §5, §6

[1] = tested on: human large cell lung cancer H460 cell transplantation tumor; experiment: H460 cell transplantation tumor model in naked mice; type: in vivo, Balb/c-nude naked mice
Experimental: Naked mice were subcutaneously inoculated with H460 cells (human large cell lung cancer cell line). When tumors grew to about 100 mm^3, 36 naked mice with similar tumor volume and good shape were selected from 70 naked mice, divided into 6 groups with 6 animals in each group;
Cisplatin: 4 mg/kg, volume of injection was 0.1 mL/10 g, i.p, administration once every 5 days, three weeks in total;
Cisplatin group: 4 mg/kg, volume of injection was 0.1 mL/10 g, i.p, administration once every 5 days, three weeks in total;
Blank group: 0.9% sodium chloride injection, mode of administration was same as DHA group.
3.1.3 Naked mice were inoculated subcutaneously at the right side of back, 0.1 mL/mouse, i.e. each naked mouse was inoculated 2×10^6 cells;
3.2.1 When tumors grew to about 100 mm^3, 36 naked mice with similar tumor volume and good shape were selected from 70 naked mice, and divided into 6 groups with 6 animals in each group.
The mixture was refrigerated at 4° C. when not used. […] 4 mL of 0.6 mg/mL cisplatin solution were measured and added with 2.0 mL physiological saline to formulate a 0.4 mg/mL (4 mg/kg) cisplatin solution. The solution was refrigerated at 4° C. when not used.
The tumor volume and body weight were measured three times per week from the first day of administration. Naked mice were sacrificed on 22th day. The tumors were taken out, weighed and photographed. The tumor inhibition rate was calculated.
The calculation formula is: TV=½×a×b^2, where a and b represents length and width, respectively.
The calculation formula is: RTV=TVt/TV1, where TV1 is a tumor volume when being caged and administrated (i.e., d1), TVt is a tumor volume at each measurement.
The calculation formula is: […]
TRTV: RTV of treatment group; CRTV: RTV of blank control group.
TTW: tumor weight of treatment group; CTW: tumor weight of blank control group; TW: tumor weight.

C-33A = experiment: CellTiter-Glo cell viability, C-33A (human cervical cancer cell); type: cell-based; settings: C-33A; 72 hours; n=4; read-out: IC50
Experimental: as §1, §2, §3, §4, §5, §6

KB = experiment: CellTiter-Glo cell viability, KB (human oral cancer cell line); type: cell-based; settings: 72 hours, n=4, read-out: IC50
Experimental: as §1, §2, §3, §4, §5, §6

BEL-7402 = experiment: CellTiter-Glo cell viability, BEL-7402 (human hepatoma cell line); type: cell-based; settings: BEL-7402; 72 hours; n=4; read-out: IC50
Experimental: as §1, §2, §3, §4, §5, §6

FaDu = experiment: CellTiter-Glo cell viability, FaDu (human pharyngeal squamous cell); type: cell-based; settings: 72 hours, n=4, read-out: IC50
Experimental: as §1, §2, §3, §4, §5, §6

SW620 = experiment: CellTiter-Glo cell viability, SW620 (human colon cancer cell); type: cell-based; settings: SW620; 72 hours; n=4; read-out: IC50
Experimental: as §1, §2, §3, §4, §5, §6

SMMC-7721 = experiment: CellTiter-Glo cell viability, SMMC-7721 (human hepatoma cell line); type: cell-based; settings: SMMC-7721; 72 hours; n=4; read-out: IC50
Experimental: as §1, §2, §3, §4, §5, §6

A375 = experiment: CellTiter-Glo cell viability, A375 (human malignant melanoma cell); type: cell-based; settings: A375; 72 hours; n=4; read-out: IC50
Experimental: as §1, §2, §3, §4, §5, §6

DU145 = experiment: CellTiter-Glo cell viability, DU145 (human prostate cancer cell); type: cell-based; settings: DU145; 72 hours; n=4; read-out: IC50
Experimental: as §1, §2, §3, §4, §5, §6

PANC-1 = experiment: CellTiter-Glo cell viability, PANC-1 (human pancreatic cancer cell line); type: cell-based; settings: PANC-1; 72 hours; n=4; read-out: IC50
Experimental: as §1, §2, §3, §4, §5, §6

Jurkat = experiment: CellTiter-Glo cell viability, Jurkat (human T lymphoblastic leukemia cell); type: cell-based; settings: 72 hours, n=4, read-out: IC50
Experimental: as §1, §2, §3, §4, §5, §6

A2780 = experiment: CellTiter-Glo cell viability, A2780 (human ovarian cancer cell line); type: cell-based; settings: A2780; 72 hours; n=4; read-out: IC50
Experimental: as §1, §2, §3, §4, §5, §6

TT = experiment: CellTiter-Glo cell viability, TT (human thyroid cancer cell); type: cell-based; settings: 72 hours, n=4, read-out: IC50
Experimental: as §1, §2, §3, §4, §5, §6

A673 = experiment: CellTiter-Glo cell viability, A673 (human rhabdomyoma cell); type: cell-based; settings: A673; 72 hours; n=4; read-out: IC50
Experimental: as §1, §2, §3, §4, §5, §6

U87MG = experiment: CellTiter-Glo cell viability, U87MG (human spongioblastoma cell line); type: cell-based; settings: U87MG; 72 hours; n=4; read-out: IC50
Experimental: as §1, §2, §3, §4, §5, §6

S180 = experiment: CellTiter-Glo cell viability, S180 (S180 sarcoma cells); type: cell-based; settings: S180; 72 hours; n=4; read-out: IC50
Experimental: as §1, §2, §3, §4, §5, §6

[2] = D20, H460 tumor naked mice, cisplatin 4 mg/kg i.p. once every 5 days, DHA p.o. 0.1 mL/10 g bid

N.N.[Cl][Pt][Cl] [DDP, cis-diammine platinum dichloride, reference compound] gave an IC50 (HepG2) of 13.9 µM, an IC50 (Caki-1) of 13.1 µM and an IC50 (A431) of 9.29 µM. For the same compound, the IC50 (WIL2-S) was 9.89 µM, the IC50 (RPMI8226) was 5.79 µM and the IC50 (SH-SY5Y) was 2.89 µM. The IC50 (Calu-6) was 220 µM, the “TV (mm^3) D1” value ([1]; D1 (first day of administration), H460 tumor naked mice) was 90.30 ± 5.61 mm^3 and the “Body weight (g) D1” value ([1]; D1 (first day of administration), H460 tumor naked mice, cisplatin 4 mg/kg i.p. once every 5 days, DHA p.o. 0.1 mL/10 g bid) was 21.1 ± 0.9 g. The “Body weight (g) D20” value [1, 2] was 17.6 ± 0.7 g, the “TV (mm^3) D20” value [1, 2] was 972.1 ± 289.5 mm^3 and the “Body temperature” value ([1]; H460 tumor naked mice) was “decreased”. For the same compound, the “Effect of tumor inhibition” value ([1]; H460 tumor naked mice, vs blank) was “significant effect of tumor inhibition”, the “Body weight during the whole test” value ([1]; H460 tumor naked mice, whole test) was “decreased significantly” and the “Body weight decrease at the end of the test” value ([1]; end of the test, H460 tumor naked mice) was “about 16.7%”. The “Tumor Weight TW” value ([1]; tumors taken out at sacrifice on 22th day, cisplatin 4 mg/kg i.p. once every 5 days, DHA p.o. 0.1 mL/10 g bid) was 0.65 ± 0.23 g, the “Tumor Weight Inhibition Rate IR (%)” value ([1]; vs blank control group tumor weight, cisplatin 4 mg/kg i.p. once every 5 days, DHA p.o. 0.1 mL/10 g bid) was 44.6% and the IC50 (C-33A) was 2.85 µM. For the same compound, the IC50 (KB) was 2 µM, the IC50 (BEL-7402) was 5.37 µM and the IC50 (FaDu) was 11.5 µM. The IC50 (SW620) was 24.4 µM, the IC50 (SMMC-7721) was 6.19 µM and the IC50 (A375) was 8.25 µM. For the same compound, the IC50 (DU145) was 4.54 µM, the IC50 (PANC-1) was 22.4 µM and the IC50 (Jurkat) was 0.66 µM. It also gave an IC50 (A2780) of 32.2 µM, an IC50 (TT) of 9.72 µM and an IC50 (A673) of 1.11 µM. The IC50 (U87MG) was 24 µM and the IC50 (S180) was 0.26 µM.
